According to patent US20220378780A1, “PHARMACEUTICAL COMPOSITIONS COMPRISING POH DERIVATIVES” (NeOnc Technologies, Inc., priority 2019, published 2022):
“Also recorded” adds a separate entry of the source. Like-named read-outs stand apart in the source and are kept apart here.

Legend:
[1] = system: TMZ sensitive cells (U251); assay: MTT cytotoxicity assay, U251
Experimental: (§1) MTT cytotoxicity assays were carried out after cells were treated with the TMZ-POH conjugate. The MTT cytotoxicity assays were carried out as described in Chen TC, et al. Green tea epigallocatechin gallate enhances therapeutic efficacy of temozolomide in orthotopic mouse glioblastoma models. Cancer Lett. 2011 Mar. 28; 302(2):100-8.

[2] = system: USC-04 glioma cancer stem cells; assay: MTT cytotoxicity assay, USC-04; type: cell-based; settings: USC-04, MTT
Description: (§2) Cancer Lett. 2011 Mar. 28; 302(2):100-8.

[3] = Toxicity studies in Beagle dogs; type: in vivo; settings: Beagle dogs (unpublished)
Description: (§3) Compared to both of its individual components, TMZ and POH, NEO212 exerts substantially greater cytotoxic activity, potentially via involvement of the pro-apoptotic module of the ER stress response mechanism, although its alkylating activity might contribute as well. As a next step in NEO212's development, in vivo experiments in immunodeficient murine CTCL models should be performed. We have attempted such models, but tumor take with our CTCL cell lines was unacceptably low, not inconsistent with reported challenges of achieving consistent tumor growth with these and other CTCL cell lines in general^57-59 It is conceivable that serial passage of positive tumors in mice would yield more aggressive cells, and we are considering pursuing this approach.

HUT102 cells [4] = assay: MTT cell viability assay, HUT102 (Example 15); type: cell-based, human
Description: (§4) 2. Material and methods 2.1. […] 2.2. […] 2.3. […] 2.4. […] 2.5.

normal astrocytes = assay: MTT cytotoxicity assay, normal astrocytes; settings: listed as TMZ-POH
Experimental: as §1

HUT78 cells [5] = assay: MTT cell viability assay, HUT78 (Example 15)
Experimental: Pharmacological agents—NEO212 was dissolved in DMSO at 100 mM. TMZ was purchased from Sigma Aldrich (St. Louis, Mo.) and dissolved in DMSO (Santa Cruz Biotechnology, Dallas, Tex.) to a concentration of 50 mM. POH was purchased from Sigma-Aldrich and diluted in DMSO to 100 mM. […] Stock solutions of all drugs were stored at −20° C. Staurosporine (STSP) was purchased from Selleck Chemicals (Houston, Tex.), stored at 4° C. protected from light, and dissolved in DMSO before use. Ascorbic acid (AA) and beta-mercaptoethanol (b-ME) (Sigma Aldrich) were prepared fresh before use. Crystalline AA was dissolved in phosphate-buffered saline (PBS) to 25 mM; b-ME was diluted in medium to 25 mM. […] Cell lines—Three different human CTLC cell lines were used. […] Both media also contained 100 U/mL penicillin and 0.1 mg/mL streptomycin. Penicillin, streptomycin, and RPMI (prepared with raw materials from Cellgro/MediaTech, Manassas, Va.) were provided by the Cell Culture Core lab of the USC/Norris Comprehensive Cancer Center. […] Cells were kept in a humidified incubator at 37° C. and a 5% CO2 atmosphere. FBS was obtained from Omega Scientific (Tarzana, Calif.) and from X&Y Cell Culture (Kansas City, Mo.). […] MTT assay—Methylthiazoletetrazolium (MTT) assays were performed as follows. Cells were seeded into 96-well plates in a volume of 50 μL per well at 3.0-5.0×10^5 cells/mL. An additional 50 μL of medium containing various concentrations of drug (or vehicle) was added and the cells were incubated for different lengths of time. This was followed by the addition of 10 μL thiazolyl-blue tetrazolium (i.e., MTT; Sigma Aldrich) from a stock solution of 5 mg/mL in phosphate-buffered saline (PBS). Cells were returned to the incubator for 4 hours. Thereafter, the reaction was stopped and the cells were lysed by the addition of 100 μL solubilization solution (10% sodium dodecyl sulfate in 0.01 M hydrochloric acid). The 96-well plate was left in the cell culture incubator over night for complete solubilization of the MTT crystals, and the optical density (OD) of each well was determined the next day in an ELISA plate reader at 560 nm. The background value (=OD of control wells containing medium without cells+MTT+solubilization solution) was subtracted from all measured values. In individual experiments, each treatment condition was set up in quadruplicate, and each experiment was repeated several times independently. […] Cell proliferation analysis—Cell proliferation was assessed by counting cells over time. Independent cell cultures were exposed to different concentrations of NEO212. At different times, aliquots of cells were removed, mixed with Trypan blue, and counted in a hemocytometer. Blue cells were considered dead, whereas unstained cells were counted as live cells. […] Fluorescence-activated cell sorting (FACS) analysis—Cells were seeded in 6-well tissue culture plates at 2×10^5 cells/mL, followed by drug treatment. After 72 hours, cells were collected, washed twice with PBS, transferred to a microcentrifuge tube, and suspended in 200 μL of 1× binding buffer solution, which was made fresh from 10x binding buffer (0.2 μm sterile-filtered 0.1 M HEPES, pH 7.4; 1.4 M NaCl; 25 mM CaCl2)). Then 1 μL of a 1 mg/mL 7-amino-actinomycin D (7-AAD) solution (Thermo Fisher Scientific, Waltham, Mass.) was added. After 20 minutes of incubation on ice, cell fluorescence was analyzed on a FACSAria Flow Cytometer (Becton Dickinson Biosciences Ltd., Franklin Lakes, N.J.).

[6] = system: CHOP, c-myc and cyclin D in HUT78, HUT102 and MyLa cells; assay: Western blot of ER stress and proliferation markers; type: cell-based, human; settings: for lowest concentration triggering near-maximal CHOP induction: 72 hours
Description: as §4

Toxicity studies in mice = type: in vivo
Description: as §3

[7] = system: ER stress (CHOP) in TMZ sensitive and resistant U251 glioma cells; assay: Western blot of ER stress (CHOP) in U251 glioma cells; type: cell-based, human; settings: 18 hr treatment
Experimental: TMZ sensitive and resistant glioma cells Western blots were performed after TMZ sensitive and resistant glioma cells were treated with the TMZ-POH conjugate for 18 hr. […] Activation of the proapoptic protein CHOP was shown at concentrations as low as 60 uM of TMZ-POH.

[8] = system: brain endothelial cells (BEC; confluent and subconfluent); assay: MTT cytotoxicity assay, brain endothelial cells; type: cell-based
Description: as §2

HUT102 cells [9] = assay: Cell proliferation by Trypan blue exclusion counting, HUT102; type: cell-based, human; settings: HUT102, 1 μM
Description: as §4

[10] = system: U87, A172 and U251 human glioma cells; assay: MTT cytotoxicity assay on human malignant glioma cells; type: cell-based
Description: In vitro efficacy of the present composition can be determined using methods well known in the art. For example, the cytotoxicity of the present monoterpene (or sesquiterpene) and/or the therapeutic agents may be studied by MTT [3-(4,5-dimethylthiazol-2-yl)-2,5-diphenyl tetrazolium bromide] cytotoxicity assay. MTT assay is based on the principle of uptake of MTT, a tetrazolium salt, by metabolically active cells where it is metabolized into a blue colored formazon product, which can be read spectrometrically. J. of Immunological Methods 65: 55 63, 1983. The cytotoxicity of the present monoterpene (or sesquiterpene) derivative and/or the therapeutic agents may be studied by colony formation assay. Functional assays for inhibition of VEGF secretion and IL-8 secretion may be performed via ELISA. Cell cycle block by the present monoterpene (or sesquiterpene) derivative and/or the therapeutic agents may be studied by standard propidium iodide (PI) staining and flow cytometry. Invasion inhibition may be studied by Boyden chambers. In this assay a layer of reconstituted basement membrane, Matrigel, is coated onto chemotaxis filters and acts as a barrier to the migration of cells in the Boyden chambers. Only cells with invasive capacity can cross the Matrigel barrier. Other assays include, but are not limited to cell viability assays, apoptosis assays, and morphological assays.
Then U87, A172 and U251 cells were treated with dimethyl celecoxib bisPOH carbamate (POH-DMC) (e.g., synthesized by the method in Example 1), and the MTT cytotoxicity assays performed (FIG. 2).
Then TMZ-resistant glioma cell lines U87, A172 and U251 cells were treated with temozolomide POH carbamate (POH-TMZ) (e.g., synthesized by the method in Example 3).

[11] = system: TMZ resistant cells (U251TR); assay: MTT cytotoxicity assay, U251TR
Experimental: as §1

MyLa cells [12] = assay: Cell proliferation by Trypan blue exclusion counting, MyLa; type: cell-based, human; settings: 1 μM
Description: as §4

[13] = system: USC-02 glioma cancer stem cells; assay: MTT cytotoxicity assay, USC-02; type: cell-based; settings: USC-02, MTT
Description: as §2

HUT78 cells [14] = assay: FACS analysis of cell death with 7-AAD; type: cell-based, human; settings: 72 hours
Description: as §4

HUT78 cells [15] = assay: Cell proliferation by Trypan blue exclusion counting, HUT78; type: cell-based, human; settings: HUT78, 1 μM
Description: as §4

HuT 78 cells = assay: MTT assay on HuT 78 cells (Example 14); settings: HuT 78, 72 hours
Experimental: HuT 78 cells are cutaneous T lymphocytes derived from a patient with Sézary syndrome.
HuT 78 cells were treated in vitro with (i) temozolomide (50, 100, 250 μM), (ii) POH-TMZ conjugate (“NEO212”, 25, 50, 100 μM), (iii) NEO412 which is the triple conjugate of temozolomide (TMZ), perillyl alcohol (POH), and linoleic acid (25, 50, 100, 250 μM), or (iv) vehicle alone. Seventy-two hours after the addition of drugs or vehicle, cell viability was determined by standard MTT (methylthiazoletetrazolium) assay.

[16] = system: TMZ sensitive (U251) cells; assay: Colony forming assay, TMZ sensitive U251; type: cell-based, human
Experimental: (§5) Colony forming assays were carried out after cells were treated with TMZ alone, POH alone, and the TMZ-POH conjugate. […] Cancer Lett. 2011 Mar. 28; 302(2):100-8.

[17] = system: tumor brain endothelial cells (TuBEC); assay: MTT cytotoxicity assay, tumor brain endothelial cells; type: cell-based
Description: as §2

MyLa cells [18] = assay: MTT cell viability assay, MyLa (Example 15); type: cell-based, human
Description: as §4

[19] = system: cleaved PARP and cleaved caspases 3 and 4 in HUT78, HUT102 and MyLa cells; assay: Western blot of apoptosis markers (cleaved PARP-1, cleaved caspases); type: cell-based, human
Description: as §4

[20] = system: TMZ resistant (U251TR) U251 cells; assay: Colony forming assay, TMZ resistant U251TR; type: cell-based, human
Experimental: as §5

With `C=C(C)C1CC=C(COC(=O)NC(=O)c2ncn3c(=O)n(C)nnc23)CC1` (centres unmarked) [NEO212] the “cytotoxicity in MTT assay” value [1] was “demonstrated cytotoxicity”, the IC50 [2] was 150 µM and the tolerability [3] was “very well tolerated”. The IC50 (HUT102 cells [4]; HUT102, 72 hours) was 9 µM, the IC50 (HUT102 cells [4]; HUT102, 96 hours) was 3 µM and the “cytotoxicity in MTT assay” value (normal astrocytes) was “not towards normal astrocytes; also recorded: did not induce significant cytotoxicity”. For the same compound, the reduction of viability (HUT78 cells [5]; HUT78, 10 μM) was “over 50%”, the “concentration of earliest effect on viability” value (HUT78 cells [5]; HUT78, 24 hours, as low as) was 3 µM and the IC50 (HUT78 cells [5]; HUT78, 48 hours) was < 3 µM. For the same compound, the IC50 (HUT78 cells [5]; HUT78, 72 hours) was ~4 µM, the “potency relative to that of TMZ” value (HUT78 cells [5]; HUT78 cells) was “over 100 fold” and the IC50 (HUT78 cells [5]; read-out: IC50 (50% decrease in viability), HUT78, 24 hours) was 8 µM. The “lowest concentration triggering near-maximal CHOP induction” value ([6]; HUT78 cells) was 0.1 µM, the “expression levels of c-myc and cyclin D proteins” value ([6]; HUT102 and MyLa cells) was “declined” and the “lowest concentration triggering near-maximal CHOP induction” value ([6]; HUT102 cells) was 1.0 µM. For the same compound, the “concentration dependence of CHOP induction” value ([6]; MyLa cells, 96 hours) was “gradual increase all the way up to 100 μM”, the “induction of CHOP protein” value ([6]; all three CTCL cell lines) was “prominent induction of CHOP protein” and the tolerability (Toxicity studies in mice) was “very well tolerated”. For the same compound, the “concentration at which activation of CHOP was shown” value ([7]; as low as) was 60 µM, the “induction of ER stress (ERS)” value ([7]; western blot) was “induces ER stress” and the “cytotoxicity in MTT assay” value ([8]; confluent BEC) was “did not induce significant cytotoxicity”. The “cytotoxicity in MTT assay” value ([8]; subconfluent BEC, high concentrations) was “Mild to moderate cytotoxicity”, the proliferation-inhibitory effect (HUT102 cells [9]) was “slightly less pronounced activity” and the “cytotoxicity in MTT assay” value [10] was “substantially higher kill rates”. The “cytotoxicity in MTT assay” value [11] was “demonstrated cytotoxicity”, the proliferation-inhibitory effect (MyLa cells [12]) was “weaker activity” and the IC50 [13] was 60 µM. For the same compound, the cell death (HUT78 cells [14]; HUT78, 1 μM) was 33%, the cell death (HUT78 cells [14]; HUT78, 30 μM) was 50% and the proliferation-inhibitory effect (HUT78 cells [15]) was “strongest effect”. The “cytotoxic effect on MF cells in MTT assay” value (HuT 78 cells) was “pronounced cytotoxic effect”, the “cytotoxicity in colony forming assay” value ([16]; listed as POH-TMZ) was “substantially greater potency compared to POH alone” and the “cytotoxicity in colony forming assay” value ([16]; listed as TMZ-POH) was “demonstrated cytotoxicity”. The “cytotoxicity in MTT assay” value [17] was “did not induce significant cytotoxicity”, the IC50 (MyLa cells [18]; 72 hours) was ~130 µM and the IC50 (MyLa cells [18]; 96 hours) was ~85 µM. The “concentration at which apoptosis markers emerged” value ([19]; HUT78 and HUT102 cells) was 0.1 to 1.0 µM, the “concentration required for apoptosis markers” value ([19]; MyLa cells) was 30 µM and the “induction of apoptosis markers” value ([19]; all three CTCL cell lines) was “appearance of cleaved PARP and cleaved (i.e., activated) caspases 3 and 4”. The “cytotoxicity in colony forming assay” value ([20]; listed as POH-TMZ) was “substantially greater potency compared to POH alone” and the “cytotoxicity in colony forming assay” value ([20]; listed as TMZ-POH) was “demonstrated cytotoxicity”.
